Results: patent US20260216239A1 (Arizona Board of Regents on Behalf of the University of …, priority 2020, published 2026)
Entries after “also recorded” stand apart in the source; their conditions may differ.

Assays:
[1] = tested on: Pseudonaja textilis venom; experiment: Thrombelastography in human plasma of venom procoagulant activity after isolated exposure of venom to compounds; type: biochemical; conditions: for maximum rate of thrombus generation (MRTG) / total thrombus generation (TTG), clot strength: 100 μM CORM-3, 100 μM RuCl3 or both; for maximum rate of thrombus generation (MRTG) / total thrombus generation (TTG), clot strength / time to maximum rate of thrombus generation (TMRTG): venom 0.1 μg/ml in plasma; for time to maximum rate of thrombus generation (TMRTG): venom exposed 5 min in PBS to 100 μM CORM-3, 100 μM RuCl3 or both
Method: […] A sample of each of these venom mixtures was then placed into human plasma (0.1 μg/ml final concentration of venom), with coagulation determined by thrombelastography until final clot strength stabilized.
(§1) All venom solutions without or with chemical additions in isolation were added as a 1% addition to the plasma mix used in our thrombelastographic system (see, Nielsen, V. G.; et al., Biometals 2016, 29, 913-919; Nielsen, V. G.; Losada, P. A. Basic Clin. Pharmacol. Toxicol. 2017, 120, 207-212; Nielsen, V. G.; Frank, N. J. Thromb. Thrombolysis 2019, 47, 533-539; Nielsen, V. G.; Bazzell, C. M. J. Thromb. Thrombolysis 2017, 43, 203-208; Nielsen, V. G.; Matika, R. W. Hum. Exp. Toxicol. 2017, 36, 727-733; Nielsen, V. G.; et al., Toxins 2018, 10, 322; Nielsen, V. G.; et al., Biometals 2018, 31, 51-59; Nielsen, V. G.; Frank, N. et al., Biometals 2018, 31, 951-959; Nielsen, V. G.; et al., Toxins 2019, 11, 94; Nielsen, V. G.; Frank, N. Hum Exp. Toxicol. 2019, 38, 216-226; Nielsen, V. G. J. Thromb. Thrombolysis 2019, 48, 256-262; Nielsen, V. G.; et al., Blood Coagul. Fibrinolysis 2019, 30, 379-384; Nielsen, V. G. J. Thromb. Thrombolysis 2019, 47, 73-79; Gessner, G.; et al., Eur. J. Pharmacol. 2017, 815, 33-41). […] The thrombelastographic model describes coagulation kinetics with the following three variables: time to maximum thrombus generation (TMRTG, minutes—a measure of time to onset of coagulation), maximum rate of thrombus generation (MRTG, dynes/cm^2/s—a measure of the velocity of clot growth) and total thrombus generation (TTG, dynes/cm^2—a measure of clot strength).
The volumes of subsequently described plasmatic and other additives summed to a final volume of 360 μL. Samples were composed of 320 μL of plasma; 16.4 μL of PBS, 20 μL of 200 mM CaCl2), and 3.6 μL of PBS, RuCl3, or venom solution mixture, which were pipetted into a disposable cup in a Thrombelastograph® hemostasis system (Model 5000, Haemonetics Inc., Braintree, MA, USA) at 37° C., and then rapidly mixed by moving the cup up against and then away from the plastic pin five times. The PBS, RuCl3, or venom solution mixtures was always the last constituent added prior to mixing and data collection. The following viscoelastic parameters described previously (see, Nielsen, V. G.; et al., Biometals 2016, 29, 913-919; Nielsen, V. G.; Losada, P. A. Basic Clin. Pharmacol. Toxicol. 2017, 120, 207-212; Nielsen, V. G.; Frank, N. J. Thromb. Thrombolysis 2019, 47, 533-539; Nielsen, V. G.; Bazzell, C. M. J. Thromb. Thrombolysis 2017, 43, 203-208; Nielsen, V. G.; Matika, R. W. Hum. Exp. Toxicol. 2017, 36, 727-733; Nielsen, V. G.; et al., Toxins 2018, 10, 322; Nielsen, V. G.; et al., Biometals 2018, 31, 51-59; Nielsen, V. G.; Frank, N. et al., Biometals 2018, 31, 951-959; Nielsen, V. G.; et al., Toxins 2019, 11, 94; Nielsen, V. G.; Frank, N. Hum Exp. Toxicol. 2019, 38, 216-226; Nielsen, V. G. J. Thromb. Thrombolysis 2019, 48, 256-262; Nielsen, V. G.; et al., Blood Coagul. Fibrinolysis 2019, 30, 379-384; Nielsen, V. G. J. Thromb.

[2] = tested on: human plasma; conditions: cited from earlier work
[3] = tested on: Echis leucogaster venom; experiment: Thrombelastography in human plasma of venom procoagulant activity after isolated exposure of venom to compounds; type: biochemical
Method: Thrombelastographic analyses. The volumes of subsequently described plasmatic and other additives summed to a final volume of 360 μl. Samples were composed of 320 μl of plasma; 16.4 μl of PBS, 20 μl of 200 mM CaCl2), and 3.6 μl of PBS or venom mixture, which were pipetted into a disposable cup in a Thrombelastograph® hemostasis system (Model 5000, Haemonetics Inc., Braintree, MA, USA) at 37° C., and then rapidly mixed by moving the cup up against and then away from the plastic pin five times. The following viscoelastic parameters described previously (see, Nielsen V G (2019) J Thromb Thrombolysis 47, 73-79; Gessner G, et al., (2017) Eur J Pharmacol 815, 33-41; Nielsen V G, Wagner M T, Frank N (2020) Int J Mol Sci 21, 2082; Lazić D, Arsenijević A, Puchta R, Bugarčić ŽD, Rilak A (2016) Dalton Trans 45, 4633; Hanif M, et al., (2017) ChemPlusChem 82, 841-847) were measured: time to maximum rate of thrombus generation (TMRTG): this is the time interval (minutes) observed prior to maximum speed of clot growth; maximum rate of thrombus generation (MRTG): this is the maximum velocity of clot growth observed (dynes/cm^2/second); and total thrombus generation (TTG, dynes/cm^2), the final viscoelastic resistance observed after clot formation.
E. leucogaster. This venom was exposed to 0 or 100 μM CORM-2 in the presence of 0 or 100 μM RuCl3 in PBS for at least 5 minutes at room temperature prior to placement into plasma followed immediately with commencement of thrombelastographic analysis. The final concentration of this venom in plasma was 1 μg/ml.
Given the aforementioned, the experimental conditions utilized were: 1) V condition—venom in PBS; 2) Ru(II) condition—venom exposed to CORM-2; 3) Ru(III) condition—venom exposed to RuCl3; 4) Ru(II+III) condition—venom exposed to CORM-2 and RuCl3 simultaneously. After the 5 minute period at room temperature, 3.6 μl of one of these solutions was added to the plasma sample in the plastic thrombelastograph cup.
as §1

[4] = 100 μM CORM-2, 100 μM RuCl3 or both, venom 1 μg/ml in plasma
[5] = venom exposed ≥5 min in PBS to 100 μM CORM-2, 100 μM RuCl3 or both, venom 1 μg/ml in plasma
[6] = venom exposed 5 min to 100 μM RuCl3 in PBS, venom 1 μg/mL in plasma (Example III)

In the case of `[C-]#[O+].[C-]#[O+].[C-]#[O+].[C-]#[O+].[C-]#[O+].[C-]#[O+].[Cl][Ru][Cl].[Cl][Ru][Cl]` [CORM-2, tricarbonyldichlororuthenium(II) dimer], the “procoagulant activity of venom” value ([1]; venom exposed 5 min to 100 μM CORM-2 in 5% human albumin, venom 100 ng/mL in plasma) is given as “uninhibited”, the “procoagulant activity of venom” value ([1]; venom exposed 5 min to 100 μM CORM-2 in PBS, venom 100 ng/mL in plasma) is given as “significantly attenuated” and the coagulation kinetics ([2]; 1 μM CORM-2) is given as “does not affect”. For the same compound, the plasmatic coagulation kinetics ([2]; up to 10 μM CORM-2 in PBS) was “no effect”, the “maximum rate of thrombus generation (MRTG)” value (shortened to “maximum rate … (MRTG)”) [3, 4] was “decrease” and the “time to maximum rate of thrombus generation (TMRTG)” value (“time to maximum rate” for short) [3, 4] was “increased; also recorded: significant increase”. For the same compound, the “procoagulant activity of venom” value ([3]; venom exposed 5 min to 100 μM CORM-2 in PBS, venom 1 μg/mL in plasma (Example III)) was “significantly attenuated” and the “procoagulant activity of venom” value [3, 5] was “significantly decreased; also recorded: procoagulant activity inhibition”.
With `[Cl][Ru]([Cl])[Cl]` [RuCl3, ruthenium(III) chloride] the “maximum rate … (MRTG)” value [1] was “significantly decreased; also recorded: decrease”, the “total thrombus generation (TTG), clot strength” value [1] was “enhanced; also recorded: increase” and the “time to maximum rate” value [1] was “significantly increased; also recorded: significant increase”. For the same compound, the “procoagulant activity of venom” value ([1]; venom exposed 5 min to 100 μM RuCl3 in PBS, venom 100 ng/mL in plasma (Example III)) was “significant loss of procoagulant activity”, the human plasmatic coagulation ([2]; RuCl3 at or below 1 μM) was “does not significantly affect” and the “maximum rate … (MRTG)” value [3, 4] was “decrease”. The “time to maximum rate” value [3, 4] was “increase”, the “maximum rate … (MRTG)” value [3, 6] was “decrease” and the “time to maximum rate” value [3, 6] was “significant increase”. The “total thrombus generation (TTG)” value [3, 6] was “decrease” and the “procoagulant activity of venom” value [3, 5] was “significantly diminished”.
With “Tricarbonylchloro(glycinato)ruthenium [CORM-3]” the “maximum rate … (MRTG)” value [1] was “significantly decreased; also recorded: decrease”, the “total thrombus generation (TTG), clot strength” value [1] was “enhanced; also recorded: increase” and the “time to maximum rate” value [1] was “significantly increased; also recorded: significant increase”.
